Laboratory results from patent US20230050965A1, “SSTR5 ANTAGONISTS” (Kallyope, Inc., priority 2019, published 2023).

Molecular target: T1, human SSTR5 (Homo sapiens, UniProt P35346)
T1 construct: expressed in transfected cells
Experiment: Inositol phosphate (IP1) accumulation assay, antagonist mode
Format: cell-based
Conditions: CHO-K1 cells stably co-expressing human SSTR5 with Gqi5; pre-incubation with antagonist, then SST28 agonist; IP1 HTRF readout
Description: Inositol Phosphate Accumulation Assay
CHO-K1 cells stably co-expressing human SSTR5 with Gqi5 were developed using Jump-In technology from Thermo-Fisher. Gqi5 is the mouse G alpha q protein, that was modified to interact with Gi-coupled GPCRs as described previously (Coward, P.; Chan, S. D.; Wada, H. G.; Humphries, G. M.; Conklin, B. R. Chimeric G proteins Allow a High-Throughput Signaling Assay of Gi-Coupled Receptors. Anal Biochem. 1999, 270(2), 242-248).
Co-expression of Gqi5 with SSTR5 allowed monitoring of SSTR5 activity by following IP1 accumulation. The assay was performed in a 384-well plate format using the IP1 assay kit from Cis-Bio in an antagonist mode, i.e., pre-incubation with antagonist following by receptor activation by agonist at a concentration generating 90% of full activation. Frozen cells expressing human SSTR5 were thawed, washed, and then plated in DMEM supplemented with 10% FBS and non-essential amino acids. 40 μL of 2.5×10^5 cells/mL were plated on a Poly D-Lysine coated 384-well white plate. The cells were then incubated for 16 hr. at 37° C./5% CO2. After 16 hour the medium was removed, and 10 μL of stimulation buffer was added to the cells. Test compounds were dissolved in DMSO at concentrations 2000-fold that of the final assay concentrations. 7.5 nL compound solutions were transferred to the cell plates using a Labcyte Echo® acoustic liquid handler. The plates were then incubated for 15 minutes at 37° C./5% CO2. After the first incubation, 5 μL of 30 nM SST28 were added to the cells, and the cells were incubated for 90 minutes at 37° C./5% CO2. 5 μL of detection buffer (prepared as described in the IP-1 kit) was added to each well, and the plates were incubated at RT for 1 hour.
TR-FRET was measured using a ClarioSTAR plate reader, calculating the ratio between emissions at 665 nm and 620 nm (HTRF ratio). The HTRF ratio for positive (Max) and negative (Min) controls were used to normalize HTRF data and generate values for % inhibition. IC50 and maximal inhibition values were determined using a standard 4-parameter fit.

T1 sequence (P35346 whole entry): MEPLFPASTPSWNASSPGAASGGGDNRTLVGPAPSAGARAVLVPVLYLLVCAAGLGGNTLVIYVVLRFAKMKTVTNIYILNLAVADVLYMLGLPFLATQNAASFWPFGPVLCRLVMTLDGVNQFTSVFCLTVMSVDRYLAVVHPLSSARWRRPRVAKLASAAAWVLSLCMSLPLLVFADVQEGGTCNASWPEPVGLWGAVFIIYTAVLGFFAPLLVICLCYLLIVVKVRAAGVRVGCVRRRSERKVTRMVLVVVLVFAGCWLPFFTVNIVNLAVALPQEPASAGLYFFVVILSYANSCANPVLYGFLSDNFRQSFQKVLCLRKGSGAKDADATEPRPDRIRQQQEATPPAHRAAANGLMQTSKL

Row | SMILES | IC50
1 | CCOc1cc(-c2ccc(F)cc2)c(C2CC2)cc1CN1CCC2(CC1)CN(c1ccc(B(O)O)cc1)C(=O)O2 [Compound 13, (4-(8-((2-cyclopropyl-5-ethoxy-4′-fluoro-[1,1′-biphenyl]-4-yl)methyl)-2-oxo-1-oxa-3,8-diazaspiro[4.5]decan-3-yl)phenyl)boronic acid] | ≤ 100 nM
2 | CCOc1cc(-c2ccc(F)cc2)c(C2CC2)cc1CN1CCC2(CC1)CN(c1ccc(CCNC(=N)NC(=N)N)cc1)C(=O)O2 [Compound 14, 1-carbamimidoyl-3-[2-[4-[8-[[5-cyclopropyl-2-ethoxy-4-(4-fluorophenyl)phenyl]methyl]-2-oxo-1-oxa-3,8-diazaspiro[4.5]decan-3-yl]phenyl]ethyl]guanidine] | ≤ 100 nM
3 | CCOc1cc(C(=O)OC)c(C2CC2)cc1CN1CCC2(CC1)CC(=O)N(c1ccc(CCCCNC=O)cc1)C2 [Compound 17, methyl 2-cyclopropyl-5-ethoxy-4-((2-(4-(4-formamidobutyl)phenyl)-3-oxo-2,8-diazaspiro[4.5]decan-8-yl)methyl)benzoate] | 100 to 1000 nM
4 | CCOc1cc(C(=O)OC)c(C2CC2)cc1CN1CCC2(CC1)CC(=O)N(c1ccc(CCCCNC(=O)CO)cc1)C2 [Compound 19, methyl 2-cyclopropyl-5-ethoxy-4-((2-(4-(4-(2-hydroxyacetamido)butyl)phenyl)-3-oxo-2,8-diazaspiro[4.5]decan-8-yl)methyl)benzoate] | 1000 to 5000 nM
5 | CCOc1cc(C(=O)OC)c(C2CC2)cc1CN1CCC2(CC1)CC(=O)N(c1ccc(CCCCNC(N)=O)cc1)C2 [Compound 20, methyl 2-cyclopropyl-5-ethoxy-4-((3-oxo-2-(4-(4-ureidobutyl)phenyl)-2,8-diazaspiro[4.5]decan-8-yl)methyl)benzoate] | 1000 to 5000 nM
6 | CCOc1cc(-c2ccc(F)cc2)c(C2CC2)cc1CN1CCC2(CC1)CN(c1ccc(P(=O)(O)O)cc1)C(=O)N2 [Compound 22, (4-(8-((2-cyclopropyl-5-ethoxy-4′-fluoro-[1,1′-biphenyl]-4-yl)methyl)-2-oxo-1,3,8-triazaspiro[4.5]decan-3-yl)phenyl)phosphonic acid] | ≤ 100 nM
7 | CCOc1cc(C(=O)OC(C)C)c(C2CC2)cc1CN1CCC2(CC1)CC(=O)N(c1ccc(P(=O)(O)O)cc1)C2 [Compound 24, (4-(8-(5-cyclopropyl-2-ethoxy-4-(isopropoxycarbonyl)benzyl)-3-oxo-2,8-diazaspiro[4.5]decan-2-yl)phenyl)phosphonic acid] | 100 to 1000 nM

Results, then the compound that gave them:

Row | IC50 | SMILES
8 | > 5000 nM | CCOc1cc(C(=O)OC)c(C2CC2)cc1CN1CCC2(CC1)CC(=O)N(c1ccc(CCCCNC(=O)NC(CO)(CO)CO)cc1)C2 [Compound 16, methyl 2-cyclopropyl-4-((2-(4-(4-(3-(1,3-dihydroxy-2-(hydroxymethyl)propan-2-yl)ureido)butyl)phenyl)-3-oxo-2,8-diazaspiro[4.5]decan-8-yl)methyl)-5-ethoxybenzoate]
9 | 1000 to 5000 nM | CCOc1cc(C(=O)OC)c(C2CC2)cc1CN1CCC2(CC1)CC(=O)N(c1ccc(CCCCNS(C)(=O)=O)cc1)C2 [Compound 18, methyl 2-cyclopropyl-5-ethoxy-4-((2-(4-(4-(methylsulfonamido)butyl)phenyl)-3-oxo-2,8-diazaspiro[4.5]decan-8-yl)methyl)benzoate]
10 | ≤ 100 nM | CCOc1cc(C(=O)OC)c(C2CC2)cc1CN1CCC2(CC1)CN(c1ccc(P(=O)(O)O)cc1)C(=O)N2 [Compound 21, (4-(8-(5-cyclopropyl-2-ethoxy-4-(methoxycarbonyl)benzyl)-2-oxo-1,3,8-triazaspiro[4.5]decan-3-yl)phenyl)phosphonic acid]
11 | > 5000 nM | CCOc1cc(C(=O)OC)c(C2CC2)cc1CN1CCC2(CC1)CC(=O)N(c1ccc(P(=O)(O)O)cc1)C2 [Compound 23, (4-(8-(5-cyclopropyl-2-ethoxy-4-(methoxycarbonyl)benzyl)-3-oxo-2,8-diazaspiro[4.5]decan-2-yl)phenyl)phosphonic acid]
